Measured values from ChEMBL document CHEMBL1201862, “PubChem BioAssay data set” (2004).
Active and inactive are the calls of the source.

Columns and labels:
[1] = biological target: T1, Aryl hydrocarbon receptor (Homo sapiens, UniProt P35869); experiment: Luminescence-based cell-based high throughput dose response assay for activators of the Aryl Hydrocarbon Receptor (AHR). [Related pubchem assays: 2796 (Primary screen (AHR activators in singlicate)), 2845 (Confirmation screen (AHR activators in triplicate)), 434939 (Counterscreen (PXR activators in triplicate)), 2804 (Summary (AHR activators))]; assay type: ADME
T1 sequence (P35869 whole entry): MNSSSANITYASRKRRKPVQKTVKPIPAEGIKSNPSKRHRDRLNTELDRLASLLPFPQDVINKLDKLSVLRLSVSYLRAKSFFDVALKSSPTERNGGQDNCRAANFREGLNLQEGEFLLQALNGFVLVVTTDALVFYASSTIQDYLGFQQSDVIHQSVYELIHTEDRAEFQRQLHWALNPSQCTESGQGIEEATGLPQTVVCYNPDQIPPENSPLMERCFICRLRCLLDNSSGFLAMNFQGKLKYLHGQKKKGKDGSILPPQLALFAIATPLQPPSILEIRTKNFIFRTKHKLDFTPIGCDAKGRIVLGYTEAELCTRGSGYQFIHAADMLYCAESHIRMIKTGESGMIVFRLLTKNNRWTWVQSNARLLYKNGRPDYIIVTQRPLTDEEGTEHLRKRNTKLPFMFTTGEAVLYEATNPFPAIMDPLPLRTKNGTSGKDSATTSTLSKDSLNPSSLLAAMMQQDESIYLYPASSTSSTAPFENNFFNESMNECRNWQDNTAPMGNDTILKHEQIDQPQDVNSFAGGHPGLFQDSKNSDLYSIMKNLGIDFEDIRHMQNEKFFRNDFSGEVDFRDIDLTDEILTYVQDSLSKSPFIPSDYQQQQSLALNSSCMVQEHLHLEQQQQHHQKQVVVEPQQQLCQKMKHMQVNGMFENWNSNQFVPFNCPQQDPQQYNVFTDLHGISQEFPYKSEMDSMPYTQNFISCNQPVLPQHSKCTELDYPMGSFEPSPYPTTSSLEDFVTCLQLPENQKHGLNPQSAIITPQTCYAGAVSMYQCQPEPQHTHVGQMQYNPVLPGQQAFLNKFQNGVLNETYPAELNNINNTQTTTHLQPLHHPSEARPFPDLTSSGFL

[2] = cytotoxicity toward NIH3T3 fibroblasts, dose response, counter-screen, cell-based, ATP luminescence, mouse fibroblasts (AID 2010); assay type: functional;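 further: cells exposed to compound for about 90 hours before reading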
[3] = inhibitors of intracellular T. cruzi replication, confirmation, NIH3T3 host cells, beta-gal luminescence (AID 2044); assay type: functional, cell-based;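 further: intracellular parasites grown in NIH/3T3 mouse fibroblasts as host cells; luminescent beta-galactosidase reporter signal from transgenic T. cruzi replicating inside host cells; inhibitors lower the luminescence signal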
[4] = Luminescence Cell-Based Dose Response to Identify Activators of Luciferase Translation or Activity in H4-C Neuroglioblastoma Cells. [Related pubchem assays: 1829 (Project Summary), 1814 (Primary HTS)]; assay type: functional
[5] = Luminescence Cell-Based Dose Confirmation to Identify Activators of 5'UTR Stem-Loop Driven Alpha-Synuclein mRNA Translation in H4 Neuroglioblastoma Cells. [Related pubchem assays: 1829 (Project Summary), 1814 (Primary HTS)]; assay type: functional
[6] = Luminescence Cell-Based Dose Confirmation HTS to Identify Activators of 5'UTR Stem-Loop Driven Alpha-Synuclein mRNA Translation in H4 Neuroglioblastoma Cells. [Related pubchem assays: 1829 (Project Summary), 1814 (Primary HTS)]; assay type: functional
H4 = experiment: Luminescence Cell-Based Dose Response HTS to Identify Activators of 5'UTR Stem-Loop Driven Prion Protein mRNA Translation in H4 Neuroglioblastoma Cells. [Related pubchem assays: 1829 (Project Summary), 1814 (Primary HTS)]; assay type: functional; conditions: Homo sapiens
[7] = Luminescence Cell-Based Dose Response to Identify Activators of 5'UTR Stem-Loop Driven Prion Protein mRNA Translation in H4-C Neuroglioblastoma Cells. [Related pubchem assays: 1829 (Project Summary), 1814 (Primary HTS)]; assay type: functional
[8] = Luminescence Cell-Based Dose Response HTS to Identify Activators of Luciferase Translation or Activity in H4 […] Cells. [Related pubchem assays: 1829 (Project Summary), 1814 (Primary HTS)]; assay type: functional
Estrogen receptor = biological target: T2, Estrogen receptor (Homo sapiens, UniProt P03372);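 further: potency for inhibiting coactivator peptide recruitment to the receptor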
T2 sequence (P03372 whole entry): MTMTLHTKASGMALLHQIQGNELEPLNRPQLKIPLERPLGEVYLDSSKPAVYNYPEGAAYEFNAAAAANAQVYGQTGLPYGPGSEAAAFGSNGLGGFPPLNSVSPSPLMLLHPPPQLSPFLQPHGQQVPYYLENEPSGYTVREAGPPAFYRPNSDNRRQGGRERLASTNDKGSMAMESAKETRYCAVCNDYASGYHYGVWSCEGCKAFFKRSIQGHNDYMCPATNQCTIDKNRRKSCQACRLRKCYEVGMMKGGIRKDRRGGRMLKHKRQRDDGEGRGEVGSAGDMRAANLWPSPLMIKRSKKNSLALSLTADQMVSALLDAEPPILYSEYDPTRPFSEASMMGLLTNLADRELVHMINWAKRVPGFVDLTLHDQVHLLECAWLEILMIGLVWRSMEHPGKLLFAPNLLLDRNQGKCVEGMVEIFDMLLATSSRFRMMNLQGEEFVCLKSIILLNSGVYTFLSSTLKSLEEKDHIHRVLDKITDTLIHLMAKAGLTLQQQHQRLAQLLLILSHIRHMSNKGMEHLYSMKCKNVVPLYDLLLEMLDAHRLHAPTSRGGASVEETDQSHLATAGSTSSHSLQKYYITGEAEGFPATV

[9] = Luminescence-based dose response cell-based high throughput screening assay for cytotoxic compounds using the IEC-6 intestinal epithelial cell line. [Related pubchem assays: 1858 (Summary AID.), 1825 (Counterscreen.), 1907 (Confirmation screen.)]; assay type: functional
[10] = HEp-2 cell cytotoxicity, dose response, cytotoxicity control for RSV inhibitor project, HTS (AID 2410); assay type: functional; conditions: human respiratory syncytial virus
[11] = biological target: T3, Carboxy-terminal domain RNA polymerase II polypeptide A small phosphatase 1 (Homo sapiens, UniProt Q9GZU7); experiment: inhibitors of CTDSP1, concentration-response testing, biochemical assay, absorbance-based, actives from ultra-high-throughput screening (AID 540297); assay type: functional
T3 sequence (Q9GZU7 whole entry): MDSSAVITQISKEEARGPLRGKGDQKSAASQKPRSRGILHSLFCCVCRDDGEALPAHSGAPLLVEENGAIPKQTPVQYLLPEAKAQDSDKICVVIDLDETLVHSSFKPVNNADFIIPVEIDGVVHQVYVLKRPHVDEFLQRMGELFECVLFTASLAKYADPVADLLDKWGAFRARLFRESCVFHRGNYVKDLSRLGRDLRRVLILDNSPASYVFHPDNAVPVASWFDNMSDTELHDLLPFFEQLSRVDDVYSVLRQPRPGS

[12] = HIV-1 Env-mediated cell fusion inhibitors, dose response, CCR5-tropic Env (AID 2279); assay type: functional
[13] = biological target: T4, Heat shock factor protein 1 (Mus musculus, UniProt P38532); experiment: inhibition of MG132-induced HSE-luciferase signal, confirmation, cell-based, NIH3T3, luminescence, dose retest (AID 2382); assay type: functional;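 further: NIH3T3 fibroblasts with HSF1-driven luciferase reporter stressed by proteasome inhibitor MG132; luminescence from HSF1-driven luciferase expression after 8 hours of MG132 stress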
T4 sequence (P38532 whole entry): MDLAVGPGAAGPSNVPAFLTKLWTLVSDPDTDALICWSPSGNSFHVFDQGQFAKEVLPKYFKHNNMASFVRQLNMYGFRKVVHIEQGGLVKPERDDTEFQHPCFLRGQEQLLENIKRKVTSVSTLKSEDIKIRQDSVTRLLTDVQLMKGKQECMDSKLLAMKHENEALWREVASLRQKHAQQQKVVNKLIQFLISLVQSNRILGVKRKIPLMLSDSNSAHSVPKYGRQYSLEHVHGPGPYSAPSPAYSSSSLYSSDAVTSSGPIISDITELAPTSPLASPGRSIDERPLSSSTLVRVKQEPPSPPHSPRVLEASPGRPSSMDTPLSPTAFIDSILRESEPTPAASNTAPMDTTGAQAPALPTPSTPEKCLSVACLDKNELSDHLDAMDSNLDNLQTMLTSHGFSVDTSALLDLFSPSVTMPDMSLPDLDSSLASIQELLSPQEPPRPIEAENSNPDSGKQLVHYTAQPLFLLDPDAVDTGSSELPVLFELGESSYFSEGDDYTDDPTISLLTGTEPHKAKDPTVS

Streptococcus = experiment: Group A Streptococcus viability loss, dose response, counter-screen for streptokinase expression inhibitor project, luminescence, BacTiterGlo (AID 1915); assay type: functional, organism-based;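 further: potency for reduction of bacterial viability or growth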
[14] = growth suppression of PTEN-null colon cells, dose response, cell-based, HCT116 PTEN knockout (AID 1047); assay type: functional;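 further: HCT116 colon tumor cells with PTEN knocked out; cells exposed to compound for 60 hours before readout; potency for loss of cell viability measured by luminescence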
INS1 = experiment: beta cell apoptosis inhibitors, cytokine rescue, dose response, luminescence, retest (AID 449756); assay type: functional, cell-based; conditions: Rattus norvegicus;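 further: cell death triggered by IL-1 beta plus TNF-alpha plus IFN-gamma mixture; protective hits raise ATP signal compared with cytokine alone wells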
[15] = A Cell Based Secondary Assay To Explore Cytotoxicity of Compounds that Sensitize Mycobacterium Tuberculosis to Beta-Lactam Antibiotics.; assay type: functional
[16] = system: Streptococcus sp. 'group A'; experiment: growth inhibition of control SK(-) GAS strain, dose response, counter-screen for streptokinase expression inhibitor project, luminescence, kanamycin, BacTiterGlo, confirmation (AID 1900); assay type: functional, organism-based
[17] = growth suppression of beta-catenin-knockout colon cells, dose response, cell-based, HCT116, human colon tumor (AID 1045); assay type: functional;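 further: HCT116 colon tumor cells with beta catenin knocked out; cells exposed to compound for 60 hours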
Genome polyprotein = Genome polyprotein (dengue virus type 2, UniProt P29990); experiment: Dengue-2 NS5 methyltransferase inhibitors, primary screen, biochemical, confirmation dose response (AID 588689); assay type: functional
Sequence of Genome polyprotein (P29990 2492-3391 limits assumed): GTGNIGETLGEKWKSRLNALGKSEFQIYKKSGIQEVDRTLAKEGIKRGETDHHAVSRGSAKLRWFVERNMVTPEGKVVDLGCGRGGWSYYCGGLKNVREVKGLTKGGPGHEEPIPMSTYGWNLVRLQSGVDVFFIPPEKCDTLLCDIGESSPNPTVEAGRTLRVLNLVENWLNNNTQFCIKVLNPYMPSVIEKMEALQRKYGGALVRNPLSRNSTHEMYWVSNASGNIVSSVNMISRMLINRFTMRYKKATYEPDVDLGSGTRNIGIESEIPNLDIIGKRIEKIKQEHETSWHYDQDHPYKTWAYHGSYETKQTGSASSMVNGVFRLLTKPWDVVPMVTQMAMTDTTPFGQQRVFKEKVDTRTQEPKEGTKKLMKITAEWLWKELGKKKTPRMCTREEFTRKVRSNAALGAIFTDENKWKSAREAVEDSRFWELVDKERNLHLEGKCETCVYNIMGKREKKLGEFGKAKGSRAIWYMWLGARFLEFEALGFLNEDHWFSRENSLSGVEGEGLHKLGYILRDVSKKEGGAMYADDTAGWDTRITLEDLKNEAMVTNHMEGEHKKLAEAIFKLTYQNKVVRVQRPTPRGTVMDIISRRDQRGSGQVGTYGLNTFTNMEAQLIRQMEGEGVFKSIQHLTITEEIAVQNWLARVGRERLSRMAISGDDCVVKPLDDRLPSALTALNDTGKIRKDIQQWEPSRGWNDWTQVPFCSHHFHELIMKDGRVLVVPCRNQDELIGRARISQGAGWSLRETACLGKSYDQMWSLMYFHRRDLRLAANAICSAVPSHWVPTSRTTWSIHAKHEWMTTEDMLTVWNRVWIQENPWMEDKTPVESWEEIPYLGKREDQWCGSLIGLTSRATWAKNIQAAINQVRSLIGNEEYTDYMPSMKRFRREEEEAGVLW

Vero = Vero cell cytotoxicity, cytotoxicity control for flavivirus capping enzyme inhibitors (AID 588742); assay type: functional; conditions: Chlorocebus sabaeus
Aminopeptidase N = biological target: T5, Aminopeptidase N (Plasmodium falciparum FcB1/Columbia, UniProt O96935); experiment: P. falciparum M1AAP inhibitors, biochemical, fluorogenic H-Leu-NHMec substrate, 1536-well (AID 1445); parameters: species or system Plasmodium falciparum 3D7, 3D7
T5 sequence (O96935 whole entry): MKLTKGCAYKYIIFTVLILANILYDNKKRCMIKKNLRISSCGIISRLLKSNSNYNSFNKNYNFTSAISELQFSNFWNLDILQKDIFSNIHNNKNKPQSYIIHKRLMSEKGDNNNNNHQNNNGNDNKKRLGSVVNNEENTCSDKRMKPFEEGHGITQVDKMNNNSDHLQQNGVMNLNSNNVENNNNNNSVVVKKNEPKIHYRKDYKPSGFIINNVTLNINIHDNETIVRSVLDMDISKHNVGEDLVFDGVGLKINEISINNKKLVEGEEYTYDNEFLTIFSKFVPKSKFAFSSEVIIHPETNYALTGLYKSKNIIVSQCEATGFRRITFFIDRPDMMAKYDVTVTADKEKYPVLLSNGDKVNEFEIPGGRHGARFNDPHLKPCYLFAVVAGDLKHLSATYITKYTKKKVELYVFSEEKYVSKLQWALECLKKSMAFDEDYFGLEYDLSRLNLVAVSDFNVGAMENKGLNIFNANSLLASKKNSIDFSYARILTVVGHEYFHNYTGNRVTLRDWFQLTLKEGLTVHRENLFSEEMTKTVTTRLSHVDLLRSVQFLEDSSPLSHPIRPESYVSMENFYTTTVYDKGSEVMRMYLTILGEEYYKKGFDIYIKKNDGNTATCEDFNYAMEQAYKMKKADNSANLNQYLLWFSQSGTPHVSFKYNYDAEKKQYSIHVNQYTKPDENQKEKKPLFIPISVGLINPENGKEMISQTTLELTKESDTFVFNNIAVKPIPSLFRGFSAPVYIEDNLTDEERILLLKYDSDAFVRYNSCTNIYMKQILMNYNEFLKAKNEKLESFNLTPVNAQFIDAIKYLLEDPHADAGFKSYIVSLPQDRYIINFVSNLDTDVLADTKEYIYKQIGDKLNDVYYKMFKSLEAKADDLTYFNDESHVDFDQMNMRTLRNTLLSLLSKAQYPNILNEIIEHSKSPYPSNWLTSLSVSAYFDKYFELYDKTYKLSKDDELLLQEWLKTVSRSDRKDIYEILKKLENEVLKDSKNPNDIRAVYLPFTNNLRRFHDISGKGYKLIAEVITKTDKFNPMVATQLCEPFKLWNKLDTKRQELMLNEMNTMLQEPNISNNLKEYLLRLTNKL

COc1cccc(C(=O)O/N=C(\N)c2ccc([N+](=O)[O-])cc2)c1
EC50 [1]: 3.57 µM (active)

O=C(CCC1CCCN(Cc2ccc3c(c2)CCO3)C1)NCc1ccc(F)c(F)c1 (stereo not drawn)
EC50 (cells): 0.011 µM (active) | EC50 [2]: > 60 µM (not active) | EC50 [3]: < 0.1 µM (active)

Cc1cc2nc(SCCN3CCOCC3)[nH]c2cc1C
EC50 [4]: 0.338 µM (active) | EC50 [5]: 0.345 µM (active) | EC50 [6]: < 0.1 µM (active) | EC50 (H4): 0.22 µM (active) | EC50 [7]: 0.61 µM (active) | EC50 [8]: 1.88 µM (active)

COc1cccc(-c2nnc(NC(=O)Cc3cccs3)s2)c1
IC50 (Estrogen receptor): 19.1 µM (active)

Cc1occc1C(=O)NC1CCCN(Cc2ccc(CC(C)C)cc2)C1 (stereo not drawn)
EC50 (cells): 0.073 µM (active) | EC50 [2]: > 60 µM (not active) | EC50 [3]: < 0.1 µM (active)

OC1=C2C(=Nc3cc4c(cc3C2c2ccc(F)cc2)OCCO4)CO1 (stereo not drawn)
IC50 [9]: 0.0539 µM (active)

COc1cc(/C=C2\C(=N)N3N=C(S(C)(=O)=O)SC3=NC2=O)ccc1OCCOc1ccccc1C
CC50 [10]: 26.3 µM (active) | IC50 [11]: 3.51 µM (active) | IC50 [12]: 28.5 µM (active)

CCn1c(C)cc(/C=C2/NC(=O)N(c3ccccc3)C2=O)c1C
EC50 [4]: 0.236 µM (active) | EC50 [5]: 0.307 µM (active) | EC50 [13]: > 195 µM (not active) | EC50 (H4): > 120 µM (not active) | EC50 [7]: 0.505 µM (active) | EC50 [8]: < 0.1 µM (active)

C/C(=N/NC(=O)c1cccs1)c1c(C)[nH]n(-c2nc3ccccc3s2)c1=O
EC50 (Streptococcus): 9.42 µM (active) | EC50 [14]: 11.2 µM (active) | AC50 (INS1): 7.34 µM (active) | CC50 [15]: 25.8 µM (active) | EC50 [16]: 5.77 µM (active) | EC50 [17]: 10.9 µM (active)

CSc1nnc(-c2ccccc2/N=C/c2c(C)nn(-c3ccc4ccccc4c3)c2O)c(O)n1
IC50 (Genome polyprotein): 37.5 µM (active) | CC50 (Vero): > 40 µM (active) | EC50 [6]: 9.56 µM (active) | EC50 (H4): 46.3 µM (active) | IC50 (Aminopeptidase N): 31.9 µM (active) | EC50 [8]: 8.3 µM (active) | IC50 [12]: 3.61 µM (active)

CC(=O)Nc1cc(-c2ccc(Cl)cc2)n[nH]1
EC50 [1]: 1.8 µM (active)
